According to ChEMBL document CHEMBL5050840, “3-(1-oxoisoindolin-2-yl)piperidine-2,6-dione derivatives and uses thereof” (2021):
Activity calls are given as the source filed them. No cut-off for these calls is given here.

Columns and labels:
[1] = system: GripTite 293 MSR; test: Induction of IKZF2 degradation in human GripTite 293 MSR cells at 10 uM assessed as reduction in IKZF2 level measured by PathHunter assay relative to control; type: cell-based; set-up: scale not given: the % may be the effect or the level left
[2] = system: PBMC; test: Effect of compound on human PBMCs at 10 uM assessed as fold increase in IL-2 producing cells; type: functional, cell-based
[3] = system: PBMC; test: Effect of compound on human PBMCs at 10 uM assessed as decrease in CD4+ T cells proliferation; type: functional, cell-based
[4] = Induction of IKZF2 degradation in human GripTite 293 MSR cells assessed as reduction in IKZF2 level measured by PathHunter assay; type: cell-based

Question: With `CN1CC=C(c2ccc3c(c2)CN(C2CCC(=O)NC2=O)C3=O)CC1` (stereo not given) as the compound, how does the Activity [1] read?
Answer: 35%

Question: With `O=C1CCC(N2Cc3cc(C4CCN(Cc5ccccc5)CC4)ccc3C2=O)C(=O)N1` (stereo not given) as the compound, how does the Activity [2] read?
Answer: Active

Question: What about the Activity [3] of the same compound?
Answer: Active

Question: For `CC(c1ccccc1)N1CCC(c2ccc3c(c2)CN(C2CCC(=O)NC2=O)C3=O)CC1` (racemic), which EC50 [4] is on record?
Answer: 7 nM

Question: With `O=C1CCC(N2Cc3cc(C4CCN([C@@H](CO)c5ccccc5)CC4)ccc3C2=O)C(=O)N1` (single isomer, unassigned) as the compound, how does the EC50 [4] read?
Answer: 590 nM

Question: For `C[C@H](c1ccccc1)N1CCC(c2ccc3c(c2)CN(C2CCC(=O)NC2=O)C3=O)CC1` (single isomer, unassigned), which EC50 [4] is on record?
Answer: 17 nM

Question: With `CC(c1ccccc1)N1CCC(c2ccc3c(c2)CN(C2CCC(=O)NC2=O)C3=O)CC1` (single isomer, unassigned) as the compound, how does the EC50 [4] read?
Answer: 9 nM

Question: For `O=C1CCC(N2Cc3cc(C4CCN(C(CO)c5ccccc5)CC4)ccc3C2=O)C(=O)N1` (single isomer, unassigned), which EC50 [4] is on record?
Answer: 850 nM

Question: For `O=C1CCC(N2Cc3cc(C4CCCN(Cc5ccccc5)CC4)ccc3C2=O)C(=O)N1` (single isomer, unassigned; form 1), which EC50 [4] is on record?
Answer: 170 nM

Question: For `O=C1CCC(N2Cc3cc(C4CCCN(Cc5ccccc5)CC4)ccc3C2=O)C(=O)N1` (single isomer, unassigned; form 2), which EC50 [4] is on record?
Answer: 210 nM
